Source: PMC6201930 (PLoS ONE, 2018)
Where “and” joins values, the source holds several entries; their conditions need not be identical. Equal entries are not always repeated. Where two headings read alike, the source gives them in different places.

How the values were obtained:
[1] = test system: p53 R213* UGA premature termination codon in HDQ-P1 mammary carcinoma cells; test: HDQ-p53UGA213 readthrough assay (full-length p53, MSD immunoassay); format: cell-based, human; conditions: for HDQ-p53UGA213 (Maxfold): maximum readthrough activity above background
Experimental: We utilized HDQ-P1 mammary carcinoma cells, which are homozygous for R213*, a UGA premature termination codon in the gene for the tumor suppressor protein p53 [30]. […] Western blot hybridization and Meso Scale Discovery (MSD) immunoassay detection of p53 were done as previously described. […] Cells (45K per well) were grown in 96-well plates and treated with compounds for 24 hours. […] Cells were lysed with 60 μl per well of lysis buffer (20 mM Tris-HCL, pH 7.5, 1 mM EGTA, 1 mM EDTA,150 mM Nacl, 0.5% Triton X100) for one hour at room temperature and 30 μl of lysate per well were transferred to the coated plate and incubated overnight at 4 °C. […] Plates were then washed three times with PBS-T and 30 μl of 0.25 μ/ml goat anti-rabbit IgG-Sulfo-tag antibody (MSD) in TBS-C was added and incubated for 1 hour at room temperature. Plates were then washed three times with PBS-T and 150 μl read buffer (MSD) was added. Plates were read immediately in a SECTOR S 600 (MSD).

[2] = test system: tGFP-CFTR542X-HA-HIS construct (codon 542 UGA) in 293H cells; test: tGFP-542X readthrough assay (HA-HIS MSD immunoassay); format: cell-based, human
[3] = test system: fLuc mRNA harboring a UGA nonsense mutation at codon 190 (fLuc-190-NS); format: biochemical, rabbit
Text: ThefLuc-190-NS assay is an in vitro rabbit reticulocyte lysate translation of an fLuc mRNA harboring a UGA nonsense mutation at codon 190 (fLuc-190-NS). It is believed that positively charged aminoglycosides are poorly taken up by cells, and we used this cell-free readthrough assay to eliminate the potential variable of cell uptake when measuring readthrough potency. […] Readthrough protein was detected using a HA-HIS MSD immunoassay described previously.
This cell-free translation assay used synthetic LUC mRNAs harboring an EMCV IRES and LUC codon 190-UGA premature stop codon prepared using the MegaScript in vitro transcription kit (Ambion). Translation reactions were done with the Rabbit Reticulocyte Lysate System (Promega) with 100 ng RNA and increasing concentrations of aminoglycosides. The amount of luminescence produced was determined after approximately 4 hours using a Viewlux CCD imager (Perkin-Elmer). Fold suppression over background was calculated as (aminoglycoside light units/PBS light units).

[4] = Cytotoxicity in stimulated PBMCs (CellTitre-Glo ATP); conditions: human, Stimulated PBMC CC50, AVERAGE (S1 File)
Text: (§1) When considering compounds for potential readthrough therapy it is important to monitor cellular and animal safety. In order to determine the most promising compounds to further evaluate in in vivo safety, we measured cytotoxicity in two different cell types. We used activated human peripheral blood mononuclear cells (PBMCs) (Table 2 and Fig 2D and 2E). PBMCs are a primary cell that when activated with phytohaemagglutinin (PHA) expand quickly and are commonly used as an in vitro surrogate for rapidly growing cells in the human body to evaluate cytotoxicity. Prior to advancing compounds into human studies, safety evaluation in rodents is performed. As an in vitro surrogate for rodent toxicity, we used primary mouse myoblasts.
(§2) Frozen human Peripheral Blood Mononuclear Cells (PBMCs) were obtained from […] (Alameda, CA, Cat# PB003F) from a single donor. […] Plates were incubated at 37°C with 5% CO2 for 4 hours prior to compound treatment. Compounds were serially diluted and added to the plates. Plates were incubated at 37°C, 5% CO2 incubator, for 72 hours prior to determinations of ATP levels. Cell viability was determined using a chemiluminescent assay to monitor adenosine triphosphate (ATP) levels in live cells (CellTitre-Glo; CTG; Promega, Cat#G7571). Methods were performed per the manufacturer’s instructions.

[5] = test system: activated human peripheral blood mononuclear cells (PBMCs); test: as above; conditions: read-out: Stimulated PBMC CC50; individual determinations (S1 File)
Text: as §1, §2

[6] = Cytotoxicity in myoblasts; conditions: mouse, primary mouse myoblasts
Text: as §1

[7] = test system: primary mouse myoblasts; test: Cytotoxicity in myoblasts; conditions: read-out: Myoblast CC50; individual determinations (S1 File)
Text: as §1

[8] = Neuromast toxicity assay (DASPEI staining); conditions: zebrafish, zebrafish embryos 5 dpf, neuromasts (hair cells), other: embryos exposed to the drug in 24-well plates
Experimental: All neuromast cytotoxicity assays were done at Biobide–BBD Biophenix SL (Gipuzkoa, Spain). […] Compounds were tested at 5 doses. After 24 hours of exposure embryos were incubated in DASPEI (2-(4-(dimethylamino)styryl) -N-Ethylpyridinium Iodide) for neuromast staining. Images of each embryo were taken and neuromasts counted. A compound was classified as ototoxic when the number of neuromasts in the treated group was less than that in the untreated control group (One Way ANOVA, multiple comparisons vs. vehicle).

[9] = concentration required to double the level of full-length p53 protein, average ± SD, at least three experiments, highest concentration 300 μM
[10] = individual experiments (S1 File)
[11] = individual experiments (S1 File), max fold
[12] = 293H cells, 24 hours, average ± SD
[13] = AVERAGE (S1 File), unit not given for EC5X
[14] = individual experiments (S1 File), unit not printed for EC5X (EC2X of the sheet in uM)
[15] = maximum readthrough above background, average ± SD
[16] = Myoblast CC50, AVERAGE (S1 File)
[17] = Neuromast CC50, AVERAGE (S1 File)
[18] = Neuromast CC50, individual determinations (S1 File)

Row | Compound | HDQ-p53UGA213 EC2X ([1]; AVERAGE (S1 File)) [µM] | HDQ-p53UGA213 max ([1]; AVERAGE (S1 File)) | HDQ-p53UGA213 EC2X [1, 9] [µM] | HDQ-p53UGA213 EC2X [1, 10] | HDQ-p53UGA213 max [1, 11] | HDQ-p53UGA213 (Maxfold) ([1]; average ± SD) [fold] | tGFP-542X EC2X [2, 12] [µM] | tGFP-542X EC2X ([2]; AVERAGE (S1 File)) [µM] | tGFP-542X Maxfold ([2]; AVERAGE (S1 File)) | tGFP-542X EC2X [2, 10] | tGFP-542X Maxfold [2, 10] | tGFP-542X EC5X [2, 14] | tGFP-542X Maxfold [2, 15] [fold] | fLuc-190-NS EC2X ([3]; AVERAGE (S1 File)) [µM] | fLuc-190-NS MaxFold ([3]; AVERAGE (S1 File)) | fLuc-190-NS EC2X ([3]; cell-free, average ± SD) [µM] | fLuc-190-NS MaxFold ([3]; cell-free, average ± SD) [fold] | fLuc-190-NS EC2X [3, 10] | fLuc-190-NS MaxFold [3, 10] | fLuc-190-NS EC5X [3, 14] | also measured
1 | CN[C@@H]1[C@@H](O)[C@@H](O[C@@H]2[C@@H](O)[C@H](O[C@H]3O[C@H]([C@@H](C)N)CC[C@H]3N)[C@@H](N)C[C@H]2N)OC[C@]1(C)O [Gentamicin C2, gentamicin C2] | 141.9 | 5.8 | 142 ± 86 | 34.99 µM and 16.61 µM and 97.73 µM and 112.3 µM and 133.88 µM and 91.16 µM and 121.67 µM and 256.3 µM and 179.64 µM and 255.57 µM and 260.59 µM | 4.1 and 15.8 and 4 and 3.2 and 5.2 and 3.9 and 2.4 and 15.7 and 3.5 and 3 | 6 ± 5 | 266 ± 44 | 265.9 | 8.9 | 225 µM and 260 µM and 312.48 µM | 11 and 9 and 7.29 | 566 and 647 and 748.53 | 9 ± 2 | 1.1 | 97.2 | 1.086 ± 0.763 | 97 ± 12 | 1.97 µM and 0.62 µM and 0.67 µM | 84.91 and 97.65 and 109.15 | 2.76 and 1.44 and 1.41 | HDQ-p53UGA213 EC2X ([1]; concentration required to double the level of full-length p53 protein, average ± SD, at least three experiments, highest concentration 300 μM, listed as C2): triple digit; tGFP-542X EC5X [2, 13]: 653.9; fLuc-190-NS EC5X [3, 13]: 1.9; CC50 at 72 h [4]: 2180 µM; CC50 [5]: 3800 µM and 566 µM; CC50 [6, 16]: 3780 µM; CC50 [7]: 6100 µM and 4310 µM and 911 µM; CC50 at 24 h [8, 17]: 2.8 µM; CC50 at 24 h [8, 18]: 2.8 µM
2 | CN[C@@H]1[C@@H](O)[C@@H](O[C@@H]2[C@@H](O)[C@H](O[C@H]3O[C@H]([C@H](C)N)CC[C@H]3N)[C@@H](N)C[C@H]2N)OC[C@]1(C)O [Gentamicin C2a, gentamicin C2a] | 251.7 | 4.2 | 252 ± 49 | 217.36 µM and 286.09 µM | 3.40 and 5.00 | 4 ± 1 | 583 ± 110 | 582.8 | 2.8 | 691 µM and 586 µM and 471.89 µM | 2.62 and 2.35 and 3.32 | >1000 | 3 ± 0.5 | 1.1 | 32.1 | 1.077 ± 0.029 | 32 ± 5 | 1.08 µM and 1.10 µM and 1.05 µM | 26.96 and 33.13 and 36.29 | 2.91 and 2.75 and 2.60 | HDQ-p53UGA213 EC2X ([1]; concentration required to double the level of full-length p53 protein, average ± SD, at least three experiments, highest concentration 300 μM, listed as C2a): triple digit; fLuc-190-NS EC5X [3, 13]: 2.8; CC50 at 72 h [4]: 6710 µM; CC50 [5]: > 1250 µM; CC50 [6, 16]: 5680 µM; CC50 ([6]; Myoblast CC50, individual determinations (S1 File)): 4640 µM; CC50 at 24 h [8, 17]: 2.7 µM; CC50 at 24 h [8, 18]: 2.7 µM
3 | CN[C@@H]1[C@@H](O)[C@@H](O[C@@H]2[C@@H](O)[C@H](O[C@H]3OC(CN)=CC[C@H]3N)[C@@H](N)C[C@H]2N)OC[C@]1(C)O [Sisomycin] | – | – | – | – | – | – | >1000 | – | 1.3 | >1000 µM | 1.27 and 1.38 and 1.37 | >1000 | 1 ± 0.1 | 2.6 | 4.0 | 2.596 ± 0.428 | 4 ± 0.5 | 2.96 µM and 2.70 µM and 2.13 µM | 3.55 and 3.95 and 4.47 | >30 | –
